Measurements reported in ChEMBL document CHEMBL4251548, “Efficient click chemistry towards fatty acids containing 1,2,3-triazole: Design and synthesis as potential antifungal drugs for Candida albicans” (2017).
Activity calls are given as the source filed them. The calls are words filed in the database; no cut-off is given here.

What was measured:
Candida albicans [1] = assay: Antifungal activity against Candida albicans SC5314 assessed as inhibition of yeast growth at <15 uM after 24 hrs by CLSI broth microdilution method; assay type: functional, organism-based
Candida albicans [2] = assay: Antifungal activity against Candida albicans SC5314 assessed as inhibition of yeast growth at >30 uM after 24 hrs by CLSI broth microdilution method; assay type: functional, organism-based
Candida albicans [3] = assay: Inhibition of germ tube formation in Candida albicans SC5314 assessed as reduction in yeast to hyphal conversion at 30 to 300 uM after 4 hrs by differential interference contrast microscopic analysis; assay type: functional, organism-based
Candida albicans [4] = assay: Inhibition of hypal growth in Candida albicans SC5314 assessed as length of germ tube at 200 uM measured immediately by differential interference contrast microscopic analysis (reference value: 70.3 +/- 12.3 micrometer); assay type: functional
Candida albicans [5] = assay: Inhibition of hypal growth in Candida albicans SC5314 assessed as length of germ tube at 200 uM after 3 hrs by differential interference contrast microscopic analysis (reference value: 149.9 +/- 22.3 micrometer); assay type: functional
Candida albicans [6] = assay: Inhibition of hypal growth in Candida albicans SC5314 assessed as length of germ tube at 200 uM after 6 hrs by differential interference contrast microscopic analysis (reference value: 235.2 +/- 40.4 micrometer); assay type: functional
Candida albicans [7] = assay: Inhibition of hypal growth in Candida albicans SC5314 assessed as length of germ tube at 200 uM after 9 hrs by differential interference contrast microscopic analysis (reference value: 223.9 +/- 24.5 micrometer); assay type: functional
Candida albicans [8] = assay: Inhibition of germ tube formation in Candida albicans SC5314 assessed as yeast to hyphal conversion at 30 to 300 uM after 2 hrs by differential interference contrast microscopic analysis relative to control; assay type: functional; design: scale not given: the % may be the effect or the level left
Candida albicans [9] = assay: Antifungal activity against Candida albicans SC5314 assessed as inhibition of yeast growth at >120 uM after 24 hrs by CLSI broth microdilution method; assay type: functional, organism-based
Candida albicans [10] = assay: Antifungal activity against Candida albicans SC5314 assessed as inhibition of yeast growth at 60 uM after 24 hrs by CLSI broth microdilution method relative to control; assay type: functional; conditions: SC5314, 24 h
Candida albicans [11] = assay: Inhibition of germ tube formation in Candida albicans SC5314 assessed as reduction in yeast to hyphal conversion at >200 uM after 4 hrs by differential interference contrast microscopic analysis relative to control; assay type: functional

Compound	inhibition (Candida albicans [1])	inhibition (Candida albicans [2])	inhibition (Candida albicans [3])	Activity (Candida albicans [4]) [um]	Activity (Candida albicans [5]) [um]	Activity (Candida albicans [6]) [um]	Activity (Candida albicans [7]) [um]	Activity (Candida albicans [8]) [%]	inhibition (Candida albicans [9])	inhibition at 60 µM (Candida albicans [10]) [%]	inhibition (INH) (Candida albicans [11]) [%]
CCCCCCCCC/C=C\C(=O)O	Active	Active	Active	65.3	73.3	63.5	64.2				
CCCCCCCCOc1ccc(C(=O)O)cc1								>95			
CCCCCCCCc1ccc(C(=O)O)s1								>95			
CCCCCCn1cc(C(=O)O)nn1	Active		Active	66.5	142.8	207.8	223.5		Active		
O=C(O)c1cn(CCCCCCO)nn1	Active		Active								
CCCCCCCCn1cc(C(=O)O)nn1	Active	Active		73.4	64.4	54.6	74.2		Active	90	95
CCCCCCCCCCn1cc(C(=O)O)nn1	Active	Active		71.8	59.1	45	53.3			90	95
